The record followed here is patent publication US20130129732A1, “METHOD FOR […]” (LANXESS Deutschland GmbH, priority 2009, published 2013).

What all share (assay type): cell-based
One assay deals with Bacillus subtilis. The experiment in a line: Microbial reduction (MLC) in clear apple juice seeded with Bacillus subtilis, preservative with or without PEF. To be noted: 10^3 CFU/ml. From the text:
(§1) In the examples hereinafter, the Elcrack® apparatus of the Deutsche Institute für Lebensmitteltechnik e. V. [German Institute for food technology] was used for the PEF treatment.
(§2) The treatment proceeded at differing field strengths and energy densities, wherein the pulse width was 20 μs and the pulse frequency 400 Hz.
(§3) In the examples hereinafter, in each case clear apple juice was admixed with stirring by means of a propeller agitator with a microbial or spore suspension, then after approximately 3 minutes, optionally further antimicrobially active substances, and thereafter after approximately 2 minutes, DMDC. The microbial or spore suspension was added in such a manner that a defined amount of cells, generally 10^3 to 10^5 CFU/ml were present in the apple juice.
(§4) The apple juice was then treated by PEF (using the above-described Elcrack® apparatus). As further microbially active substances, sodium benzoate or potassium sorbate were used.
(§5) As a measure for microbial reduction, the median logarithmic cell count reduction (MLC) was determined. In this case the logarithm of the surviving cell count is subtracted from the logarithm of the initial cell count. The higher the MLC value, the higher the microbial reduction and the better the activity is.
(§6) A: Bacillilus subtilis DSM 347 (ATCC 6633) B: Penicillium roqueforti DSM 1079 (ATCC 34908) C: Lactobacillus frigidus DSM 6235 D: Saccharomyces […] DSM 70449 (ATCC 18824)

A further assay concerns Penicillium roqueforti. The experiment in a line: Microbial reduction (MLC) in clear apple juice seeded with Penicillium roqueforti, preservative with or without PEF. To be noted: 10^5 CFU/ml.
Source text: as §1, §2, §3, §4, §5, §6

Another assay deals with Lactobacillus frigidus. The assay is described as follows: Microbial reduction (MLC) in clear apple juice seeded with Lactobacillus frigidus, preservative with or without PEF. The note with it: 10^5 CFU/ml, after 1 week.
Source text: as §1, §2, §3, §4, §5, §6

Another assay deals with Saccharomyces cerivisiae. The experiment in a line: Microbial reduction (MLC) in clear apple juice seeded with Saccharomyces cerivisiae, preservative with PEF. To be noted: 10^5 CFU/ml, PEF 5 kV/cm, 3-6 J/ml, after 24 h.
Source text: as §1, §2, §3, §4, §5, §6

Setting [1] is: PEF 35 kV/cm, 110-116 J/ml, after 24 h.
The mark [2] stands for this setting: PEF 30 kV/cm, 94-104 J/ml, after 24 h.

With `COC(=O)OC(=O)OC` [Example A1, dimethyl dicarbonate], the “MLC (median logarithmic cell count reduction)” value with Bacillus subtilis (setting [1]) is 2.2/24 h. As for `COC(=O)OC(=O)OC` [Example A4, dimethyl dicarbonate], in the assay with Bacillus subtilis (PEF 15 kV/cm, 23 J/ml, after 24 h), the “MLC (median logarithmic cell count reduction)” value was 1.4/24 h.

Take `COC(=O)OC(=O)OC` [Example A5, dimethyl dicarbonate]: the “MLC (median logarithmic cell count reduction)” value with Bacillus subtilis (PEF 35 kV/cm, 111 J/ml, after 1 week) is 3.0/1 week.

With `COC(=O)OC(=O)OC` [Example B5, dimethyl dicarbonate], in the assay with Penicillium roqueforti (PEF 30 kV/cm, 94-104 J/ml, after 4 weeks), the “MLC (median logarithmic cell count reduction)” value is “at least 7/4”. As to `COC(=O)OC(=O)OC` [Example C1, dimethyl dicarbonate], in the assay with Lactobacillus frigidus (PEF 30 kV/cm, 88-93 J/ml), the “MLC (median logarithmic cell count reduction)” value was 3.6/1 week. With `COC(=O)OC(=O)OC` [Example D1, dimethyl dicarbonate], in the assay on Saccharomyces cerivisiae, the “MLC (median logarithmic cell count reduction)” value was “min 7/24 h”. Take `O=C([O-])c1ccccc1.[Na+]` [VA1, sodium benzoate]: the “MLC (median logarithmic cell count reduction)” value in the assay on Bacillus subtilis (setting [1]) was 2.0/24 h. On to `C/C=C/C=C/C(=O)[O-].[K+]` [VA2, potassium sorbate], for which the “MLC (median logarithmic cell count reduction)” value in the assay with Bacillus subtilis (setting [1]) was 0.5/24 h.

Take `COC(=O)OC(=O)OC` [VB1, dimethyl dicarbonate]: the “MLC (median logarithmic cell count reduction)” value in the assay on Penicillium roqueforti (no PEF, 21° C., after 24 h) is listed as 6.4/24 h. Turning to `O=C([O-])c1ccccc1.[Na+]` [VB3, sodium benzoate], the “MLC (median logarithmic cell count reduction)” value in the assay on Penicillium roqueforti (setting [2]) was “none; heavy”. For the molecule `C/C=C/C=C/C(=O)[O-].[K+]` [VB4, potassium sorbate], the “MLC (median logarithmic cell count reduction)” value in the assay on Penicillium roqueforti (setting [2]) is “none; heavy”. Take `COC(=O)OC(=O)OC` [VC1, dimethyl dicarbonate]: the “MLC (median logarithmic cell count reduction)” value in the assay with Lactobacillus frigidus (no PEF, 21° C.) was 2.3/1 week. Turning to `O=C([O-])c1ccccc1.[Na+]` [VC2, sodium benzoate], in the assay on Lactobacillus frigidus (PEF 30 kV/cm, 88-93 J/ml), the “MLC (median logarithmic cell count reduction)” value was 2.8/1 week. Regarding `C/C=C/C=C/C(=O)[O-].[K+]` [VC3, potassium sorbate], the “MLC (median logarithmic cell count reduction)” value in the assay with Lactobacillus frigidus (PEF 30 kV/cm, 88-93 J/ml) was 3.0/1 week. For `O=C([O-])c1ccccc1.[Na+]` [VD2, sodium benzoate], the “MLC (median logarithmic cell count reduction)” value with Saccharomyces cerivisiae is “none; heavy”. In the case of `C/C=C/C=C/C(=O)[O-].[K+]` [VD3, potassium sorbate], in the assay on Saccharomyces cerivisiae, the “MLC (median logarithmic cell count reduction)” value was “none; heavy”.
